{"source": "patent US10689343B2", "about": "“Inhibitors of tryptophan 2,3-dioxygenase” (NETHERLANDS TRANSLATIONAL RESEARCH CENTER B.V., priority 2016, dated 2020)", "key": {"[1]": {"biological_target": "T1, TDO in SW48 colorectal carcinoma cells (Homo sapiens, UniProt P48775)", "T1 construct": "Endogenous expression of TDO has been determined in a variety of cancer cell lines; host or cells: SW48 colorectal carcinoma cells", "T1 sequence (P48775 whole entry)": "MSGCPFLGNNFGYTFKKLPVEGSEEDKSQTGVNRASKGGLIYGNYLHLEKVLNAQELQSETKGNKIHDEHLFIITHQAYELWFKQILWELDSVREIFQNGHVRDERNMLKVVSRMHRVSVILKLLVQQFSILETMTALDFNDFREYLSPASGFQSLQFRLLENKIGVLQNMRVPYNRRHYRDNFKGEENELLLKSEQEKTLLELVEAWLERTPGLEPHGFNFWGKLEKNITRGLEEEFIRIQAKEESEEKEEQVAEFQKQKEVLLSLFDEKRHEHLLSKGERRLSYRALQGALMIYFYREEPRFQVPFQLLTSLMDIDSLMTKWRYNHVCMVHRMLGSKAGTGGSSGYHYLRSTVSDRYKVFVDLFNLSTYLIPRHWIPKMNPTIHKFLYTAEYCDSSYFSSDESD", "assay": "Cell-based assay for TDO in SW48 colorectal carcinoma cells (NFK GreenScreen)", "conditions": "18 hours with L-tryptophan, read-out: IC50 on TDO in cells", "experimental": "The biological activity of TDO inhibitors can be measured by applying above detection methods to cells that are treated with test compound. Endogenous expression of TDO has been determined in a variety of cancer cell lines (Pilotte et al.; Seegers, et al.), or TDO can be expressed in cells that lack endogenous TDO by transfection of an expression vector containing TDO cDNA. […] A preferred assay is the cell-based NFK GreenScreen™ assay (Seegers et al, supra), which measures the cellular inhibitory activity of compounds on TDO. […] No. V9920). Cell-Based Assay for TDO The NFK GreenScreen™ assay technology was also used to determine the inhibitory activity of compounds on TDO in SW48 colorectal carcinoma cells (Seegers, N., et al., J. Biol. Screen. 19: 1266; 2014). […] Compounds were dissolved in DMSO and diluted in RPMI 1640. Final DMSO concentration in the assay was 0.4% (v/v). Eight thousand cells per well in 40 μl were seeded in a black 384-well tissue plate (cat. No. 781086; […] To determine NFK levels, 12 μl NFK Green™ (NTRC, Oss, The Netherlands) was added to each well, and the plate was sealed and incubated for 4 hours at 37° C. Fluorescence was measured on an EnVision multimode reader (Perkin Elmer, Waltham, Mass., USA)."}, "Recombinant TDO": {"biological_target": "T2, Recombinant TDO (Homo sapiens, UniProt P48775)", "T2 construct": "Recombinant TDO (Seegers, N., et al.) and all other assay components were diluted in TDO reaction buffer", "T2 sequence (P48775 whole entry)": "as above", "assay": "Biochemical assay for TDO (NFK GreenScreen)", "conditions": "50 nM TDO, 200 μM L-tryptophan", "experimental": "Biochemical Assay for TDO\nThe NFK GreenScreen™ assay technology was also used to determine the inhibitory activity of compounds on TDO (Seegers, N., et al., J. Biol. Screen. 19: 1266; 2014). Compounds were serially diluted in DMSO and finally in TDO reaction buffer, consisting of 100 mM NaH2PO4, pH 7.0, supplemented with 0.02% Tween-20 (cat. No. P7949; Sigma Aldrich). Recombinant TDO (Seegers, N., et al.) and all other assay components were diluted in TDO reaction buffer. 10 μl of compound solution and 20 μl of enzyme solution supplemented with 200 μM ascorbic acid were combined in the well of a black 384-well plate (cat. no. 3573; Corning, Corning, N.Y., USA), and incubated for 60 min at room temperature. Subsequently, 10 μl of 0.8 mM of the substrate L-tryptophan was added, i.e., the final concentration of L-tryptophan was 200 μM. The DMSO concentration in the assay was 0.3%. The concentration of TDO was 50 nM. Incubation was continued for 15 min at room temperature. Then, 10 μl of NFK Green™ (NTRC, Oss, The Netherlands) was added, the plate was sealed, and the reaction was developed for 3 hours at 37° C. To determine the production of N-formyl kynurenine (NFK), the seal was removed and fluorescence was read on an EnVision multimode reader (Perkin Elmer, Waltham, Mass., USA). IC50 were calculated using XLfit™ software (ID Business Solutions, Ltd., Surrey, U.K.)."}, "CYP2D6": {"biological_target": "CYP2D6 (Homo sapiens, UniProt P10635)", "sequence (P10635 whole entry)": "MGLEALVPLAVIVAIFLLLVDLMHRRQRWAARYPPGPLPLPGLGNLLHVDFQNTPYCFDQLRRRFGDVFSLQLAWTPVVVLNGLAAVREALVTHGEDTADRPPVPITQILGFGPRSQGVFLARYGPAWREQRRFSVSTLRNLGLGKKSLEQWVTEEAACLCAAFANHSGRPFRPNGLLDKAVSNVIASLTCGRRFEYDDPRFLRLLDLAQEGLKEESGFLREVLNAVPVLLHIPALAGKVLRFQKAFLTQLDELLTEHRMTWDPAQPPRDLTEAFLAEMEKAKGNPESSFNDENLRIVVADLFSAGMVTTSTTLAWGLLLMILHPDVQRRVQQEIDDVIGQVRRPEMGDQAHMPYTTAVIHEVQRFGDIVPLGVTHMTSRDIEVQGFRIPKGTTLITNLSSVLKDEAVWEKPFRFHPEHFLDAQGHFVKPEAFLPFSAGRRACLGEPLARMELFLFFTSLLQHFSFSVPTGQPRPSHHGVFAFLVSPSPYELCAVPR", "assay": "P450-Glo CYP2D6 Luc-IP assay"}, "CYP3A4": {"biological_target": "CYP3A4 (Homo sapiens, UniProt P08684)", "sequence (P08684 whole entry)": "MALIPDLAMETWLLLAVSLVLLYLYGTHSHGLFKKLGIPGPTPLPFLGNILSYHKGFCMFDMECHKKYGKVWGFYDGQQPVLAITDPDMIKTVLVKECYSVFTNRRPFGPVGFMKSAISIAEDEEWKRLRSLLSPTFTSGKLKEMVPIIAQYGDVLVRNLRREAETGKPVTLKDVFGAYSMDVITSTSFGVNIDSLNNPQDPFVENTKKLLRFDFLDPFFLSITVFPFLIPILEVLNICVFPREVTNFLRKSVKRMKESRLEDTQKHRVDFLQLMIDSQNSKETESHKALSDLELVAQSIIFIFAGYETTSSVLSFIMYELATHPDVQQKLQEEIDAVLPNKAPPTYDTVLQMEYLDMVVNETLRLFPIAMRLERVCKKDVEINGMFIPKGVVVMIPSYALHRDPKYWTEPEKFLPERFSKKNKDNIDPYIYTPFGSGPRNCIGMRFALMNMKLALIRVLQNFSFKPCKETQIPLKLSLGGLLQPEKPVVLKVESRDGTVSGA", "assay": "P450-Glo CYP3A4 luciferin isopropylacetal (Luc-IP) assay"}}, "note": "Where “and” joins values, the source holds several entries; their conditions need not be identical. Equal values may be shown once.", "data": [{"smiles": "O=C(N[C@@H]1CCCC[C@H]1O)c1ccc(-c2c[nH]c3cc(F)ccc23)cc1", "note": "[Example 50, 4-(6-Fluoro-1H-indol-3-yl)-N-[(1R,2R)-2-hydroxycyclohexyl]benzamide]", "values": [{"measurement": "IC50", "setting": "[1]", "value": "≤ 0.5 µM and 0.2 to 0.5 µM"}, {"measurement": "IC50", "setting": "Recombinant TDO", "value": "< 1", "unit": "µM"}, {"measurement": "IC50", "setting": "CYP2D6", "value": "> 10", "unit": "µM"}, {"measurement": "IC50", "setting": "CYP3A4", "value": "> 10", "unit": "µM"}]}, {"smiles": "C[C@H](CO)NC(=O)c1ccc(-c2c[nH]c3cc(F)ccc23)c(F)c1", "note": "[Example 117, 3-Fluoro-4-(6-fluoro-1H-indol-3-yl)-N-[(1R)-2-hydroxy-1-methyl-ethyl]benzamide]", "values": [{"measurement": "IC50", "setting": "[1]", "value": "≤ 0.5 µM and 0.2 to 0.5 µM"}, {"measurement": "IC50", "setting": "Recombinant TDO", "value": "< 1", "unit": "µM"}, {"measurement": "IC50", "setting": "CYP2D6", "value": "5 to 10", "unit": "µM"}, {"measurement": "IC50", "setting": "CYP3A4", "value": "5 to 10", "unit": "µM"}]}, {"smiles": "COc1cc(-c2c[nH]c3cc(F)ccc23)ccc1C(=O)NCCCN(C)C", "note": "[Example 137, N-[3-(dimethylamino)propyl]-4-(6-fluoro-1H-indol-3-yl)-2-methoxy-benzamide]", "values": [{"measurement": "IC50", "setting": "[1]", "value": "≤ 0.2", "unit": "µM"}, {"measurement": "IC50", "setting": "Recombinant TDO", "value": "< 1", "unit": "µM"}, {"measurement": "IC50", "setting": "CYP2D6", "value": "> 10", "unit": "µM"}, {"measurement": "IC50", "setting": "CYP3A4", "value": "> 10", "unit": "µM"}]}, {"smiles": "N[C@H]1CC[C@@H](NC(=O)c2ccc(-c3c[nH]c4cc(F)ccc34)cc2)CC1", "note": "[Example 61, N-(cis-4-aminocyclohexyl)-4-(6-fluoro-1H-indol-3-yl)benzamide]", "values": [{"measurement": "IC50", "setting": "[1]", "value": "≤ 0.5 µM and 0.2 to 0.5 µM"}, {"measurement": "IC50", "setting": "Recombinant TDO", "value": "< 1", "unit": "µM"}, {"measurement": "IC50", "setting": "CYP2D6", "value": "> 10", "unit": "µM"}, {"measurement": "IC50", "setting": "CYP3A4", "value": "5 to 10", "unit": "µM"}]}, {"smiles": "O=C(NCCN1C[C@@H](O)[C@H](O)C1)c1ccc(-c2c[nH]c3cc(F)ccc23)cc1Cl", "note": "[Example 116, 2-Chloro-N-[2-[(3R,4R)-3,4-dihydroxypyrrolidin-1-yl]ethyl]-4-(6-fluoro-1H-indol-3-yl)benzamide]", "values": [{"measurement": "IC50", "setting": "[1]", "value": "≤ 0.5 µM and 0.2 to 0.5 µM"}, {"measurement": "IC50", "setting": "Recombinant TDO", "value": "< 1", "unit": "µM"}, {"measurement": "IC50", "setting": "CYP2D6", "value": "> 10", "unit": "µM"}, {"measurement": "IC50", "setting": "CYP3A4", "value": "> 10", "unit": "µM"}]}, {"smiles": "O=C(N[C@H]1CCCNC1)c1c(F)cc(-c2c[nH]c3cc(F)ccc23)cc1F", "note": "[Example 58, 2,6-Difluoro-4-(6-fluoro-1H-indol-3-yl)-N-[(3S)-3-piperidyl]benzamide]", "values": [{"measurement": "IC50", "setting": "[1]", "value": "≤ 0.2", "unit": "µM"}, {"measurement": "IC50", "setting": "Recombinant TDO", "value": "< 1", "unit": "µM"}, {"measurement": "IC50", "setting": "CYP2D6", "value": "> 10", "unit": "µM"}, {"measurement": "IC50", "setting": "CYP3A4", "value": "> 10", "unit": "µM"}]}, {"smiles": "CS(=O)(=O)CC(=O)Nc1ccc(-c2c[nH]c3cc(F)ccc23)cc1", "note": "[Example 80, N-[4-(6-fluoro-1H-indol-3-yl)phenyl]-2-methylsulfonyl-acetamide]", "values": [{"measurement": "IC50", "setting": "[1]", "value": "≤ 0.2", "unit": "µM"}, {"measurement": "IC50", "setting": "Recombinant TDO", "value": "1 to 5", "unit": "µM"}, {"measurement": "IC50", "setting": "CYP2D6", "value": "> 10", "unit": "µM"}, {"measurement": "IC50", "setting": "CYP3A4", "value": "> 10", "unit": "µM"}]}, {"smiles": "CC(C)[C@H](C)NC(=O)c1ccc(-c2c[nH]c3cc(F)ccc23)cc1", "note": "[Example 49, N-[(1S)-1,2-dimethylpropyl]-4-(6-fluoro-1H-indol-3-yl)benzamide]", "values": [{"measurement": "IC50", "setting": "[1]", "value": "≤ 0.5 µM and 0.2 to 0.5 µM"}, {"measurement": "IC50", "setting": "Recombinant TDO", "value": "< 1", "unit": "µM"}, {"measurement": "IC50", "setting": "CYP2D6", "value": "> 10", "unit": "µM"}, {"measurement": "IC50", "setting": "CYP3A4", "value": "> 10", "unit": "µM"}]}, {"smiles": "CN1C2CCC1CC(NC(=O)c1ccc(-c3c[nH]c4cc(F)ccc34)cc1)C2", "note": "(stereo not shown) [Example 47, 4-(6-Fluoro-1H-indol-3-yl)-N-(8-methyl-8-azabicyclo[3.2.1]octan-3-yl)benzamide]", "values": [{"measurement": "IC50", "setting": "[1]", "value": "≤ 0.5 µM and 0.2 to 0.5 µM"}, {"measurement": "IC50", "setting": "Recombinant TDO", "value": "< 1", "unit": "µM"}, {"measurement": "IC50", "setting": "CYP2D6", "value": "> 10", "unit": "µM"}, {"measurement": "IC50", "setting": "CYP3A4", "value": "> 10", "unit": "µM"}]}, {"smiles": "Cc1cc(C(=O)NCCCN(C)C)ccc1-c1c[nH]c2cc(F)ccc12", "note": "[Example 127, N-[3-(dimethylamino)propyl]-4-(6-fluoro-1H-indol-3-yl)-3-methyl-benzamide]", "values": [{"measurement": "IC50", "setting": "[1]", "value": "≤ 0.5 µM and 0.2 to 0.5 µM"}, {"measurement": "IC50", "setting": "Recombinant TDO", "value": "< 1", "unit": "µM"}, {"measurement": "IC50", "setting": "CYP2D6", "value": "> 10", "unit": "µM"}, {"measurement": "IC50", "setting": "CYP3A4", "value": "> 10", "unit": "µM"}]}, {"smiles": "O=C(NCCN1CCCC1)c1ccc(-c2c[nH]c3cc(F)ccc23)cc1Cl", "note": "[Example 70, 2-Chloro-4-(6-fluoro-1H-indol-3-yl)-N-(2-pyrrolidin-1-ylethyl)benzamide]", "values": [{"measurement": "IC50", "setting": "[1]", "value": "≤ 0.2", "unit": "µM"}, {"measurement": "IC50", "setting": "Recombinant TDO", "value": "< 1", "unit": "µM"}, {"measurement": "IC50", "setting": "CYP2D6", "value": "> 10", "unit": "µM"}, {"measurement": "IC50", "setting": "CYP3A4", "value": "5 to 10", "unit": "µM"}]}, {"smiles": "O=C(NC[C@H]1CCCNC1)c1ccc(-c2c[nH]c3cc(F)ccc23)cc1", "note": "[Example 94, 4-(6-Fluoro-1H-indol-3-yl)-N-[[(3S)-3-piperidyl]methyl]benzamide]", "values": [{"measurement": "IC50", "setting": "[1]", "value": "≤ 0.5 µM and 0.2 to 0.5 µM"}, {"measurement": "IC50", "setting": "Recombinant TDO", "value": "< 1", "unit": "µM"}, {"measurement": "IC50", "setting": "CYP2D6", "value": "> 10", "unit": "µM"}, {"measurement": "IC50", "setting": "CYP3A4", "value": "5 to 10", "unit": "µM"}]}, {"smiles": "O=C(NC1CCCNCC1)c1ccc(-c2c[nH]c3cc(F)ccc23)cc1", "note": "(stereo not shown) [Example 83, N-(azepan-4-yl)-4-(6-fluoro-1H-indol-3-yl)benzamide]", "values": [{"measurement": "IC50", "setting": "[1]", "value": "≤ 0.2", "unit": "µM"}, {"measurement": "IC50", "setting": "Recombinant TDO", "value": "< 1", "unit": "µM"}, {"measurement": "IC50", "setting": "CYP2D6", "value": "> 10", "unit": "µM"}, {"measurement": "IC50", "setting": "CYP3A4", "value": "> 10", "unit": "µM"}]}]}
